# Legend:
# Test in all cases: Bacterial growth minimal inhibitory concentration (microdilution, CLSI M7-A7)
# Assay type in all cases: cell-based
# [1] = system: Acinetobacter baumannii T6474; conditions: Acinetobacter baumannii, T6474; multiply-resistant strain (in particular quinolone-resistant); cation-adjusted Mueller-Hinton Broth
# Method: (§1) Minimal Inhibitory Concentrations (MICs; mg/L) were determined in cation-adjusted Mueller-Hinton Broth by a microdilution method following the description given in “Methods for Dilution Antimicrobial Susceptibility Tests for Bacteria that Grow Aerobically”, Approved standard, 7th ed., Clinical and Laboratory Standards Institute (CLSI) Document M7-A7, Wayne, Pa., USA (2006).
# (§2) All Example compounds were tested against several Gram-positive and Gram-negative bacteria. […] K. pneumoniae A-651 and Acinetobacter baumannii T6474 are multiply-resistant strains (in particular quinolone-resistant), while E. coli ATCC25922 and P. aeruginosa ATCC27853 are quinolone-sensitive strains.
# E. coli ATCC25922 = conditions: Escherichia coli, ATCC25922; quinolone-sensitive strain; cation-adjusted Mueller-Hinton Broth
# Method: as §1, §2
# K. pneumoniae A-651 = conditions: Klebsiella pneumoniae, A651; multiply-resistant strain (in particular quinolone-resistant); cation-adjusted Mueller-Hinton Broth
# Method: as §1, §2
# P. aeruginosa ATCC27853 = conditions: Pseudomonas aeruginosa, ATCC27853; quinolone-sensitive strain; cation-adjusted Mueller-Hinton Broth
# Method: as §1, §2
Structure (SMILES),MIC [1],MIC (E. coli ATCC25922),MIC (K. pneumoniae A-651),MIC (P. aeruginosa ATCC27853)
"C[C@@](CCn1ccc2cc(C#CC#CC3(O)COC3)ccc21)(C(=O)NO)S(C)(=O)=O [Example 11, (R)—N-hydroxy-4-(5-((3-hydroxyoxetan-3-yl)buta-1,3-diyn-1-yl)-1H-indol-1-yl)-2-methyl-2-(methylsulfonyl)butanamide]",16 µg/mL,0.5 µg/mL,0.25 µg/mL,1 µg/mL
"C[C@@](CCn1ncc2cc(C#Cc3ccc(C4(O)COC4)cc3)ccc21)(C(=O)NO)S(C)(=O)=O [Example 12, (R)—N-hydroxy-4-(5-((4-(3-hydroxyoxetan-3-yl)phenyl)ethynyl)-1H-indazol-1-yl)-2-methyl-2-(methylsulfonyl)butanamide]",0.25 µg/mL,0.25 µg/mL,0.25 µg/mL,1 µg/mL
"C[C@@](CCn1ncc2cc(C#CC#CC3(O)CSC3)ccc21)(C(=O)NO)S(C)(=O)=O [Example 13, (R)—N-hydroxy-4-(5-((3-hydroxythietan-3-yl)buta-1,3-diyn-1-yl)-1H-indazol-1-yl)-2-methyl-2-(methylsulfonyl)butanamide]",8 µg/mL,0.25 µg/mL,0.25 µg/mL,1 µg/mL
"C[C@@](CCn1ncc2cc(C#Cc3ccc(CCO)cc3)ccc21)(C(=O)NO)S(C)(=O)=O [Example 14, (R)—N-hydroxy-4-(5-((4-(2-hydroxyethyl)phenyl)ethynyl)-1H-indazol-1-yl)-2-methyl-2-(methylsulfonyl)butanamide]",0.125 µg/mL,≤ 0.063 µg/mL,0.25 µg/mL,1 µg/mL
"C[C@@H](O)c1ccc(C#Cc2ccc3c(cnn3CC[C@](C)(C(=O)NO)S(C)(=O)=O)c2)cc1.Cl [Example 16, (R)—N-hydroxy-4-(5-((4-((R)-1-hydroxyethyl)phenyl)ethynyl)-1H-indazol-1-yl)-2-methyl-2-(methylsulfonyl)butanamide hydrochloride]",0.25 µg/mL,≤ 0.063 µg/mL,0.125 µg/mL,1 µg/mL
"C[C@@](CCn1ccc2cc(C#CC#C[C@H]3C[C@@H]3CO)ccc21)(C(=O)NO)S(C)(=O)=O [Example 17, (R)—N-hydroxy-4-(5-(((1S,2S)-2-(hydroxymethyl)cyclopropyl)buta-1,3-diyn-1-yl)-1H-indol-1-yl)-2-methyl-2-(methylsulfonyl)butanamide]",16 µg/mL,≤ 0.063 µg/mL,0.125 µg/mL,0.5 µg/mL
"C[C@@](CCn1ncc2cc(C#Cc3ccc([C@H]4C[C@@H]4CO)cc3)ccc21)(C(=O)NO)S(C)(=O)=O [Example 19, (R)—N-hydroxy-4-(5-((4-((1S,2S)-2-(hydroxymethyl)cyclopropyl)phenyl)ethynyl)-1H-indazol-1-yl)-2-methyl-2-(methylsulfonyl)butanamide]",≤ 0.063 µg/mL,0.125 µg/mL,0.25 µg/mL,1 µg/mL
"C[C@@](CCn1ncc2cc(C#Cc3ccc([C@@H]4C[C@H]4CO)cc3)ccc21)(C(=O)NO)S(C)(=O)=O [Example 20, (R)—N-hydroxy-4-(5-((4-((1R,2R)-2-(hydroxymethyl)cyclopropyl)phenyl)ethynyl)-1H-indazol-1-yl)-2-methyl-2-(methylsulfonyl)butanamide]",≤ 0.063 µg/mL,≤ 0.063 µg/mL,0.25 µg/mL,1 µg/mL
"CC(C)(N)C#CC#Cc1ccc2c(cnn2CC[C@](C)(C(=O)NO)S(C)(=O)=O)c1 [Example 24, (R)-4-(5-(5-amino-5-methylhexa-1,3-diyn-1-yl)-1H-indazol-1-yl)-N-hydroxy-2-methyl-2-(methylsulfonyl)butanamide]",> 32 µg/mL,1 µg/mL,4 µg/mL,1 µg/mL
"C[C@@](CCn1ccc2cc(C#Cc3ccc(C4(CO)CC4)cc3)ccc21)(C(=O)NO)S(C)(=O)=O [Example 25, (R)—N-hydroxy-4-(5-((4-(1-(hydroxymethyl)cyclopropyl)phenyl)ethynyl)-1H-indol-1-yl)-2-methyl-2-(methylsulfonyl)butanamide]",0.5 µg/mL,0.25 µg/mL,0.5 µg/mL,2 µg/mL
"C[C@@](CCn1ncc2cc(C#Cc3ccc(NC(=O)CO)cc3)ccc21)(C(=O)NO)S(C)(=O)=O [Example 28, (R)—N-hydroxy-4-(5-((4-(2-hydroxyacetamido)phenyl)ethynyl)-1H-indazol-1-yl)-2-methyl-2-(methylsulfonyl)butanamide]",0.5 µg/mL,1 µg/mL,2 µg/mL,4 µg/mL
"CC(C)(O)c1ccc(C#Cc2ccc3c(ccn3CC[C@](C)(C(=O)NO)S(C)(=O)=O)c2)cc1 [Example 29, (R)—N-hydroxy-4-(5-((4-(2-hydroxypropan-2-yl)phenyl)ethynyl)-1H-indol-1-yl)-2-methyl-2-(methylsulfonyl)butanamide]",0.5 µg/mL,0.25 µg/mL,0.5 µg/mL,2 µg/mL
"C[C@@](CCn1ncc2c(F)c(C#Cc3ccc(C4(O)COC4)cc3)ccc21)(C(=O)NO)S(C)(=O)=O [Example 30, (R)-4-(4-fluoro-5-((4-(3-hydroxyoxetan-3-yl)phenyl)ethynyl)-1H-indazol-1-yl)-N-hydroxy-2-methyl-2-(methylsulfonyl)butanamide]",0.125 µg/mL,0.25 µg/mL,0.5 µg/mL,1 µg/mL
"C[C@@](CCn1ncc2c(F)c(C#CC#C[C@H]3C[C@@H]3CO)ccc21)(C(=O)NO)S(C)(=O)=O [Example 31, (R)-4-(4-fluoro-5-(((1S,2S)-2-(hydroxymethyl)cyclopropyl)buta-1,3-diyn-1-yl)-1H-indazol-1-yl)-N-hydroxy-2-methyl-2-(methylsulfonyl)butanamide]",1 µg/mL,≤ 0.063 µg/mL,≤ 0.063 µg/mL,0.5 µg/mL
"C[C@@](CCn1ccc2cc(C#Cc3ccc([C@H]4C[C@@H]4CO)cc3)ccc21)(C(=O)NO)S(C)(=O)=O [Example 33, (R)—N-hydroxy-4-(5-((4-((1S,2S)-2-(hydroxymethyl)cyclopropyl)phenyl)ethynyl)-1H-indol-1-yl)-2-methyl-2-(methylsulfonyl)butanamide]",0.125 µg/mL,0.125 µg/mL,0.25 µg/mL,2 µg/mL
"C[C@H](O)c1ccc(C#Cc2ccc3c(ccn3CC[C@](C)(C(=O)NO)S(C)(=O)=O)c2)cc1 [Example 35, (R)—N-hydroxy-4-(5-((4-((S)-1-hydroxyethyl)phenyl)ethynyl)-1H-indol-1-yl)-2-methyl-2-(methylsulfonyl)butanamide]",0.25 µg/mL,≤ 0.063 µg/mL,0.25 µg/mL,2 µg/mL

# More lines, now with the values ahead:
MIC [1],MIC (E. coli ATCC25922),MIC (K. pneumoniae A-651),MIC (P. aeruginosa ATCC27853),Structure (SMILES)
16 µg/mL,≤ 0.063 µg/mL,≤ 0.063 µg/mL,0.5 µg/mL,"C[C@@](CCn1ccc2cc(C#CC#C[C@@H]3C[C@H]3CO)ccc21)(C(=O)NO)S(C)(=O)=O [Example 18, (R)—N-hydroxy-4-(5-(((1R,2R)-2-(hydroxymethyl)cyclopropyl)buta-1,3-diyn-1-yl)-1H-indol-1-yl)-2-methyl-2-(methylsulfonyl)butanamide]"
0.5 µg/mL,1 µg/mL,1 µg/mL,1 µg/mL,"C[C@@](CCn1ncc2cc(C#Cc3ccc([C@@H](O)CO)cc3)ccc21)(C(=O)NO)S(C)(=O)=O [Example 21, (R)-4-(5-((4-((R)-1,2-dihydroxyethyl)phenyl)ethynyl)-1H-indazol-1-yl)-N-hydroxy-2-methyl-2-(methylsulfonyl)butanamide]"
0.5 µg/mL,0.5 µg/mL,1 µg/mL,1 µg/mL,"C[C@@](CCn1ncc2cc(C#Cc3ccc([C@H](O)CO)cc3)ccc21)(C(=O)NO)S(C)(=O)=O [Example 22, (R)-4-(5-((4-((S)-1,2-dihydroxyethyl)phenyl)ethynyl)-1H-indazol-1-yl)-N-hydroxy-2-methyl-2-(methylsulfonyl)butanamide]"
0.125 µg/mL,0.125 µg/mL,0.5 µg/mL,1 µg/mL,"C[C@H](O)c1ccc(C#Cc2ccc3c(cnn3CC[C@](C)(C(=O)NO)S(C)(=O)=O)c2)cc1 [Example 23, (R)—N-hydroxy-4-(5-((4-((S)-1-hydroxyethyl)phenyl)ethynyl)-1H-indazol-1-yl)-2-methyl-2-(methylsulfonyl)butanamide]"
2 µg/mL,≤ 0.063 µg/mL,0.125 µg/mL,0.5 µg/mL,"C[C@@](CCn1ncc2cc(C#CC#C[C@H]3C[C@@H]3CO)ccc21)(C(=O)NO)S(C)(=O)=O [Example 26, (R)—N-hydroxy-4-(5-(((1S,2S)-2-(hydroxymethyl)cyclopropyl)buta-1,3-diyn-1-yl)-1H-indazol-1-yl)-2-methyl-2-(methylsulfonyl)butanamide]"
0.125 µg/mL,0.25 µg/mL,0.5 µg/mL,2 µg/mL,"C[C@@](CCn1ncc2cc(C#Cc3ccc(OCCO)cc3)ccc21)(C(=O)NO)S(C)(=O)=O [Example 27, (R)—N-hydroxy-4-(5-((4-(2-hydroxyethoxy)phenyl)ethynyl)-1H-indazol-1-yl)-2-methyl-2-(methylsulfonyl)butanamide]"
16 µg/mL,0.25 µg/mL,0.5 µg/mL,1 µg/mL,"C[C@@](CCn1ncc2cc(C#CC#CC3(CO)CC3)ccc21)(C(=O)NO)S(C)(=O)=O [Example 34, (R)—N-hydroxy-4-(5-((1-(hydroxymethyl)cyclopropyl)buta-1,3-diyn-1-yl)-1H-indazol-1-yl)-2-methyl-2-(methylsulfonyl)butanamide]"
